The results in this text go back to patent publication US8283361B2 (AstraZeneca AB, priority 2008, dated 2012).

As usually defined, the inhibition is the drop in the measured response relative to a control, in per cent.

This experiment addresses S. aureus GyrB ATPase (Staphylococcus aureus, UniProt P0A0K8). Description: biochemical. The following applies: compound at 1 μM; one value per test if tested more than once; read-out: % Inhibition of S. aureus GyrB ATPase. The gist of the method:
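IC50 values derive from 10-point titrations of compound (in DMSO). Phosphate formed from 250 μM ATP was quantified by acidic molybdate/malachite green after quenching.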

Counter-ions that a name gives are not always drawn.

S. aureus GyrB ATPase, sequence (P0A0K8 whole entry): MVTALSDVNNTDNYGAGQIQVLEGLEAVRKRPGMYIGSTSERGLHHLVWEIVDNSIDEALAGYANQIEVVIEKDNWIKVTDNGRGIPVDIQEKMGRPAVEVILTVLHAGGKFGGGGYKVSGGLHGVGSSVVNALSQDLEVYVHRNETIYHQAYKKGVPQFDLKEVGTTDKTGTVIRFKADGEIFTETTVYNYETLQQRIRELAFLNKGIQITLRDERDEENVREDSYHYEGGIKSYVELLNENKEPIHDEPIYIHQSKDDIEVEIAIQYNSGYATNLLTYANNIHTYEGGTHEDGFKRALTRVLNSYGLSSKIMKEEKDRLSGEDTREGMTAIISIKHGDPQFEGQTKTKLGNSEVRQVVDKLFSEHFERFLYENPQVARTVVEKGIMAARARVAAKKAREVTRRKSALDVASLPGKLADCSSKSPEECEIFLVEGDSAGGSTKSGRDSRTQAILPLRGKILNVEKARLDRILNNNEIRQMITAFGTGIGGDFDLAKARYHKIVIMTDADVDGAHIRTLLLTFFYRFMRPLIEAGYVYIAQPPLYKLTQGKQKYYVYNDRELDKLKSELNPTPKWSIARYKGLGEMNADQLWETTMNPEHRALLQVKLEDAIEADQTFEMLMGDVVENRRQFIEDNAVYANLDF
S. aureus GyrB ATPase, sequence (P0AES4 whole entry, further chain): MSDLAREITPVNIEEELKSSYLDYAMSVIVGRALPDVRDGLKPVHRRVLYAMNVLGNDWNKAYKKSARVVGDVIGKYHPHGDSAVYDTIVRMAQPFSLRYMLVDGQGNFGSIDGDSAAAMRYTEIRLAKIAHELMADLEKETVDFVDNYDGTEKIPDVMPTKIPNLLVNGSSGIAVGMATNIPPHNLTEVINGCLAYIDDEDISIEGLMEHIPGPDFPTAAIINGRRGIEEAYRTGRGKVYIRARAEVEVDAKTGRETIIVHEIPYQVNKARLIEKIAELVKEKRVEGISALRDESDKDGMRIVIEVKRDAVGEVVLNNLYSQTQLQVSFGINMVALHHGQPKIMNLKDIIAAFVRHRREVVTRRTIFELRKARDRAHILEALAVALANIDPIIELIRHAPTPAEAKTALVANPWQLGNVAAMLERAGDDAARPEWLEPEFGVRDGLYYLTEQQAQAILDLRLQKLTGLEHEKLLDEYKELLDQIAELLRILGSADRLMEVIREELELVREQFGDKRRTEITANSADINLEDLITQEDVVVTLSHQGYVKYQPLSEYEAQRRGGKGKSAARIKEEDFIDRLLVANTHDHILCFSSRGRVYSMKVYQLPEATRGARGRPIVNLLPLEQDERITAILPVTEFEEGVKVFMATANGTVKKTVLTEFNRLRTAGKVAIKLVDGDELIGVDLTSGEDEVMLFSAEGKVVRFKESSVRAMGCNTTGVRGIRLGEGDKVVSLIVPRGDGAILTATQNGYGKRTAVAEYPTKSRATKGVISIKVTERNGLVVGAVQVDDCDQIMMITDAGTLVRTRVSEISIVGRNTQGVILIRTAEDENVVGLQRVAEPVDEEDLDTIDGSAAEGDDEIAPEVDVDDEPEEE

Regarding `CCNC(=O)Nc1cc(-c2nc(C(F)(F)F)cs2)c(-c2ccc3c(c2)c(=O)c(C(=O)O)cn3[C@@H]2CCCN(CCS(C)(=O)=O)C2)cn1` [Example 281, (R)-ethyl 6-(6-(3-ethylureido)-4-(4-(trifluoromethyl)thiazol-2-yl)pyridin-3-yl)-1-(1-(2-(methylsulfonyl)ethyl)piperidin-3-yl)-4-oxo-1,4-dihydroquinoline-3-carboxylic acid], the inhibition at 1 µM worked out at 106%.

In the case of `CCNC(=O)Nc1cc(-c2nc(C(F)(F)F)cs2)c(-c2ccc3c(c2)c(=O)c(C(=O)O)cn3[C@@H]2CCCN(Cc3cccn3C)C2)cn1` [Example 282, (R)-ethyl 6-(6-(3-ethylureido)-4-(4-(trifluoromethyl)thiazol-2-yl)pyridin-3-yl)-1-(1-((1-methyl-1H-pyrrol-2-yl)methyl)piperidin-3-yl)-4-oxo-1,4-dihydroquinoline-3-carboxylic acid], the inhibition at 1 µM came out at 105%.

`CCNC(=O)Nc1cc(-c2nc(C(F)(F)F)cs2)c(-c2ccc3c(c2)c(=O)c(C(=O)O)cn3[C@H]2CCCN(Cc3cccn3C)C2)cn1` [Example 283, (S)-ethyl 6-(6-(3-ethylureido)-4-(4-(trifluoromethyl)thiazol-2-yl)pyridin-3-yl)-1-(1-((1-methyl-1H-pyrrol-2-yl)methyl)piperidin-3-yl)-4-oxo-1,4-dihydroquinoline-3-carboxylic acid]: the inhibition at 1 µM was found to be 102%.

Take `CCNC(=O)Nc1cc(-c2nc(C(F)(F)F)cs2)c(-c2ccc3c(c2)c(=O)c(C(=O)O)cn3[C@H]2CCCN(CCN3CCOCC3)C2)cn1` [Example 284, (S)-ethyl 6-(6-(3-ethylureido)-4-(4-(trifluoromethyl)thiazol-2-yl)pyridin-3-yl)-1-(1-(2-morpholinoethyl)piperidin-3-yl)-4-oxo-1,4-dihydroquinoline-3-carboxylic acid]: the inhibition at 1 µM amounted to 107%.

For the compound `CCNC(=O)Nc1cc(-c2nc(C(F)(F)F)cs2)c(-c2ccc3c(c2)c(=O)c(C(=O)O)cn3[C@@H]2CCCN(CCN3CCOCC3)C2)cn1` [Example 285, (R)-ethyl 6-(6-(3-ethylureido)-4-(4-(trifluoromethyl)thiazol-2-yl)pyridin-3-yl)-1-(1-(2-morpholinoethyl)piperidin-3-yl)-4-oxo-1,4-dihydroquinoline-3-carboxylic acid], the inhibition at 1 µM turned out to be 105%.

As to `CCNC(=O)Nc1cc(-c2nc(C(F)(F)F)cs2)c(-c2ccc3c(c2)c(=O)c(C(=O)O)cn3[C@@H]2CCCN(CC(C)(C)C)C2)cn1` [Example 286], the inhibition at 1 µM worked out at 102%.

In the case of `CCNC(=O)Nc1cc(-c2nc(C(F)(F)F)cs2)c(-c2ccc3c(c2)c(=O)c(C(=O)O)cn3[C@H]2CCCN(CCN(CC)CC)C2)cn1` [Example 287, (S)-ethyl 1-(1-(2-(diethylamino)ethyl)piperidin-3-yl)-6-(6-(3-ethylureido)-4-(4-(trifluoromethyl)thiazol-2-yl)pyridin-3-yl)-4-oxo-1,4-dihydroquinoline-3-carboxylic acid trifluoroacetate], the inhibition at 1 µM turned out to be 100%.

Regarding `CCNC(=O)Nc1cc(-c2nc(C(F)(F)F)cs2)c(-c2ccc3c(c2)c(=O)c(C(=O)O)cn3[C@@H]2CCCN(CCN(CC)CC)C2)cn1` [Example 288, (S)-ethyl 1-(1-(2-(diethylamino)ethyl)piperidin-3-yl)-6-(6-(3-ethylureido)-4-(4-(trifluoromethyl)thiazol-2-yl)pyridin-3-yl)-4-oxo-1,4-dihydroquinoline-3-carboxylic acid trifluoroacetate], the inhibition at 1 µM was determined as 99%.

Turning to `CCNC(=O)Nc1cc(-c2nc(C(F)(F)F)cs2)c(-c2ccc3c(c2)c(=O)c(C(=O)O)cn3[C@H]2CCCN(CC(C)(C)CN3CCOCC3)C2)cn1` [Example 289, (S)-1-(1-(2,2-dimethyl-3-morpholinopropyl)piperidin-3-yl)-6-(6-(3-ethylureido)-4-(4-(trifluoromethyl)thiazol-2-yl)pyridin-3-yl)-4-oxo-1,4-dihydroquinoline-3-carboxylic acid], the inhibition at 1 µM came to 103%.
